The results in this text go back to patent publication US20210246164A1, “PEPTIDIC PROTEIN KINASE C INHIBITORS AND USES THEREOF” (UNIVERSITE DE GENEVE, priority 2016, published 2021).

The subject of assay [1] is Antigen-specific serum antibodies (IgG total and IgG1). In words: Intranasal immunization with Ova, antigen-specific serum antibodies by ELISA. The assay is classed as in vivo, mice. To be noted: i.n. 5 μg Ova with 5 μg P1 vs Ova alone; after three immunizations. The text has this:
The effect of peptides of the invention on the efficacy of mucosal vaccines has been investigated by administering a combination of P1 with a soluble protein antigen and induced immunization has been investigated.
6 week-old female C57-BL/6 mice were purchased from Charles River Laboratories (Harlan, France) and hosted under standard conditions following the corresponding guidelines of Animal Ethic Committee. Mice (n=5) were immunized by intranasal (i.n.) administration under anesthesia on days 0, 14, and 28 with the following immunogens: saline (PBS) as a negative control, ovalbumin (Ova) (in NaCl 0.9% solution) or Ova+P1 Ova/dose (5 μg) (mixture of solution of Ova in NaCl 0.9% and solution of P1 in NaCl 0.9%) as a mixture were administered to each animal group in 12 μL (6 μL per nostril). P1 was used at a concentration of 5 μg/dose. […]
Antigen-specific serum antibodies (IgG total and IgG1) were measured by ELISA (enzyme-linked immunosorbent assay). […] Plates were washed 4 times, and HRP was quantified by adding 100 μl of TMB (3,3′,5,5′-Tetramethylbenzidine) substrate (Pierce Protein Research Products; Rockford, Ill.). Antibody titers were determined at the midpoint of the optical density-log dilution curves after subtraction of the naive background, and none-responding mice were given an arbitrary titer of 10.
(ELISA stands for enzyme-linked immunosorbent assay.)

The subject of assay [2] is TJ proteins occludin and ZO-1 in primary human bronchial epithelial cell monolayers. Nature of the assay: Immunofluorescence of TJ proteins occludin and ZO-1, bronchial cells (confocal microscopy). Format: cell-based. The settings on record: 50 μM peptide, 2 hours. On the procedure:
The effect of peptides of the invention on the tight junction structure of human primary nasal and bronchial epithelial cells were evaluated by confocal microscopy as follows. Mucilair™ human primary nasal and bronchial epithelial cells (Epithelix Sarl, Geneva, Switzerland) were incubated with 50 μM of peptide of the invention P1 or comparative peptides C1 and C2 for 2 hours and washed twice with phosphate buffered saline (PBS) (without Ca^2+/Mg^2+) at 37° C. Cells were fixed with methanol/acetone (50:50) for 5 minutes at […], air-dried, and washed with TBST (mixture of tris-buffered saline (TBS) and Polysorbate 20). Cell monolayers were blocked using a solution of 3% bovine serum albumin (BSA) in PBS for 60 minutes at room temperature and incubated with primary antibody against occludin (Cat: 331588, Invitrogen, Zug, Switzerland); dilution (1:200)) and ZO-1 (zonula occludens-1 protein) (Cat: 339194, Invitrogen, Zug, Switzerland); dilution (1:200)) in dilution buffer. Samples were mounted (Vectashield mounting media with DAPI (4′,6-diamidino-2-phenylindole); Vector Laboratories) and assessed within the next 24 hours by using a laser-scanning confocal microscope (CLSM; Plan-Apochromat 63/1.40 (oil) DIC objective, Zeiss Axiovert 100M-LSM 510; Carl Zeiss, Oberkochen, Germany). […]

The structures appear in SMILES notation. Where a SMILES comes first, the peptide text is derived from it. The star is where a group is joined. Myristoyl = CCCCCCCCCCCCCC(=O)*

Take `CCCCCCCCCCCCCC(=O)N[C@@H](C)C(=O)N[C@@H](CCCNC(=N)N)C(=O)N[C@@H](CCCNC(=N)N)C(=O)N[C@@H](Cc1c[nH]c2ccccc12)C(=O)N[C@@H](CCCNC(=N)N)C(=O)O` [Peptide P1, Myr-ARRWR] (Myristoyl-ARRWR-OH): in assay [1], the “Ova-specific serum IgG1 response” value is listed as “significantly higher” and the “Ova-specific serum IgG (total) response” value is “significantly higher”. Besides, the “redistribution of occludin and ZO-1” value in assay [2] is “causes desired TJ proteins redistribution”.
